# Assay results reported in PubChem BioAssay AID1963448 (Molecular Pharmacology Branch, DTP, NCI, 2024).
# System: 616215-338-R-J1-PDC complex spheroid growth, % test/control
# Experiment: Anticancer human tumor 616215-338-R-J1-PDC patient-derived colon adenocarcinoma cell line growth inhibition [Asc]
# Conditions: for IC50: curve of first compound; for viability, T/C: stronger effect = lower value
# Method in brief: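 Spheroid model: tumor line + HUVEC + hMSC. Single agents and combinations; top conc. at/near clinical Cmax (10 microM if undetermined), half-log dilutions. DMSO stocks at 800-fold test concentration.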
# [1] = second compound 0.1 µM, first compound 0.00316 µM
# [2] = second compound 0.1 µM, first compound 0.01 µM
# [3] = second compound 0.1 µM, first compound 0.0316 µM
# [4] = second compound 0.1 µM, first compound 0.1 µM
# [5] = second compound 0.316 µM, first compound 0.00316 µM
# [6] = second compound 0.316 µM, first compound 0.01 µM
# [7] = second compound 0.316 µM, first compound 0.0316 µM
# [8] = second compound 0.316 µM, first compound 0.1 µM
# [9] = second compound 1 µM, first compound 0.00316 µM
# [10] = second compound 1 µM, first compound 0.01 µM
# [11] = second compound 1 µM, first compound 0.0316 µM
# [12] = second compound 1 µM, first compound 0.1 µM
# [13] = second compound 3.16 µM, first compound 0.00316 µM
# [14] = second compound 3.16 µM, first compound 0.01 µM
# [15] = second compound 3.16 µM, first compound 0.0316 µM
# [16] = second compound 3.16 µM, first compound 0.1 µM
# [17] = second compound 10 µM, first compound 0.00316 µM
# [18] = second compound 10 µM, first compound 0.01 µM
# [19] = second compound 10 µM, first compound 0.0316 µM
# [20] = second compound 10 µM, first compound 0.1 µM
# [21] = second compound 0.1 µM, first compound 0.316 µM
# [22] = second compound 0.1 µM, first compound 1 µM
# [23] = second compound 0.316 µM, first compound 0.316 µM
# [24] = second compound 0.316 µM, first compound 1 µM
# [25] = second compound 1 µM, first compound 0.316 µM
# [26] = second compound 1 µM, first compound 1 µM
# [27] = second compound 3.16 µM, first compound 0.316 µM
# [28] = second compound 3.16 µM, first compound 1 µM
# [29] = second compound 10 µM, first compound 0.316 µM
# [30] = second compound 10 µM, first compound 1 µM
# 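Note: spheroids exposed to agents for seven days before readout.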
# 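Throughout, for viability, T/C: 100% = DMSO vehicle control viability.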
structure (smiles),measurement,setting,value
Cc1nc(N2CCC3(CC2)COC(C)C3N)c(CO)nc1Sc1ccnc(N)c1Cl (configuration not stated) + CNC(C)C(=O)NC1CN(S(=O)(=O)c2cccc(S(=O)(=O)N3CCC4CCC(C(=O)NC(c5ccccc5)c5ccccc5)N4C(=O)C(NC(=O)C(C)NC)C3)c2)CCC2CCC(C(=O)NC(c3ccccc3)c3ccccc3)N2C1=O,IC50,second compound 0.00316 µM,969 nM
same,IC50,second compound 0.01 µM,534 nM
same,IC50,second compound 0.0316 µM,1080 nM
same,IC50,second compound 0.1 µM,784 nM
same,IC50,second compound 0.316 µM,530 nM
same,IC50,second compound 1 µM,1770 nM
same,"viability, T/C","second compound 0.00316 µM, first compound 0.00949 µM",96.8%
same,"viability, T/C","second compound 0.00316 µM, first compound 0.03 µM",104%
same,"viability, T/C","second compound 0.00316 µM, first compound 0.0949 µM",89.7%
same,"viability, T/C","second compound 0.00316 µM, first compound 0.3 µM",99.3%
same,"viability, T/C","second compound 0.00316 µM, first compound 0.949 µM",50.8%
same,"viability, T/C","second compound 0.00316 µM, first compound 3 µM",8.66%
same,"viability, T/C","second compound 0.01 µM, first compound 0.00949 µM",87.2%
same,"viability, T/C","second compound 0.01 µM, first compound 0.03 µM",94.1%
same,"viability, T/C","second compound 0.01 µM, first compound 0.0949 µM",99.7%
same,"viability, T/C","second compound 0.01 µM, first compound 0.3 µM",85.3%
same,"viability, T/C","second compound 0.01 µM, first compound 0.949 µM",14.7%
same,"viability, T/C","second compound 0.01 µM, first compound 3 µM",7.72%
same,"viability, T/C","second compound 0.0316 µM, first compound 0.00949 µM",99.4%
same,"viability, T/C","second compound 0.0316 µM, first compound 0.03 µM",68.4%
same,"viability, T/C","second compound 0.0316 µM, first compound 0.0949 µM",104%
same,"viability, T/C","second compound 0.0316 µM, first compound 0.3 µM",98.4%
same,"viability, T/C","second compound 0.0316 µM, first compound 0.949 µM",54.9%
same,"viability, T/C","second compound 0.0316 µM, first compound 3 µM",11.4%
same,"viability, T/C","second compound 0.1 µM, first compound 0.00949 µM",103%
same,"viability, T/C","second compound 0.1 µM, first compound 0.03 µM",85.1%
same,"viability, T/C","second compound 0.1 µM, first compound 0.0949 µM",94%
same,"viability, T/C","second compound 0.1 µM, first compound 0.3 µM",115%
same,"viability, T/C","second compound 0.1 µM, first compound 0.949 µM",40.3%
same,"viability, T/C","second compound 0.1 µM, first compound 3 µM",9.21%
same,"viability, T/C","second compound 0.316 µM, first compound 0.00949 µM",92.2%
same,"viability, T/C","second compound 0.316 µM, first compound 0.03 µM",78.3%
same,"viability, T/C","second compound 0.316 µM, first compound 0.0949 µM",98.2%
same,"viability, T/C","second compound 0.316 µM, first compound 0.3 µM",68.3%
same,"viability, T/C","second compound 0.316 µM, first compound 0.949 µM",29.9%
same,"viability, T/C","second compound 0.316 µM, first compound 3 µM",11.6%
same,"viability, T/C","second compound 1 µM, first compound 0.00949 µM",83.1%
same,"viability, T/C","second compound 1 µM, first compound 0.03 µM",88.3%
same,"viability, T/C","second compound 1 µM, first compound 0.0949 µM",103%
same,"viability, T/C","second compound 1 µM, first compound 0.3 µM",92.5%
same,"viability, T/C","second compound 1 µM, first compound 0.949 µM",101%
same,"viability, T/C","second compound 1 µM, first compound 3 µM",12.8%
Cn1ncnc1[C@H]1c2n[nH]c(=O)c3cc(F)cc(c23)N[C@@H]1c1ccc(F)cc1 + Cc1c(S(C)(=O)=O)c(-c2cc(F)cc(N3CCN(c4ccc(NS(=O)(=O)c5ccc(NC(CCN6CCC(C(=O)OCCCP(=O)(O)O)CC6)CSc6ccccc6)c(S(=O)(=O)C(F)(F)F)c5)cc4)CC3)c2)c(-c2ccc(Cl)cc2)n1C(C)C,IC50,second compound 0.1 µM,> 100 nM
same,IC50,second compound 0.316 µM,> 100 nM
same,IC50,second compound 1 µM,15.4 nM
same,IC50,second compound 3.16 µM,< 0.316 nM
same,IC50,second compound 10 µM,< 0.316 nM
same,"viability, T/C","second compound 0.1 µM, first compound 0.000316 µM",88.5%
same,"viability, T/C","second compound 0.1 µM, first compound 0.001 µM",104%
same,"viability, T/C",[1],85.2%
same,"viability, T/C",[2],90.1%
same,"viability, T/C",[3],86.2%
same,"viability, T/C",[4],84.9%
same,"viability, T/C","second compound 0.316 µM, first compound 0.000316 µM",86.4%
same,"viability, T/C","second compound 0.316 µM, first compound 0.001 µM",87.6%
same,"viability, T/C",[5],90.8%
same,"viability, T/C",[6],85.8%
same,"viability, T/C",[7],76.6%
same,"viability, T/C",[8],69.3%
same,"viability, T/C","second compound 1 µM, first compound 0.000316 µM",66.9%
same,"viability, T/C","second compound 1 µM, first compound 0.001 µM",67.8%
same,"viability, T/C",[9],63.7%
same,"viability, T/C",[10],54%
same,"viability, T/C",[11],42.7%
same,"viability, T/C",[12],32.9%
same,"viability, T/C","second compound 3.16 µM, first compound 0.000316 µM",38.9%
same,"viability, T/C","second compound 3.16 µM, first compound 0.001 µM",39%
same,"viability, T/C",[13],27.3%
same,"viability, T/C",[14],15.8%
same,"viability, T/C",[15],9.58%
same,"viability, T/C",[16],4.09%
same,"viability, T/C","second compound 10 µM, first compound 0.000316 µM",25.9%
same,"viability, T/C","second compound 10 µM, first compound 0.001 µM",20%
same,"viability, T/C",[17],10.4%
same,"viability, T/C",[18],4.53%
same,"viability, T/C",[19],2.52%
same,"viability, T/C",[20],1.65%
O=C(c1cc(Cc2n[nH]c(=O)c3ccccc23)ccc1F)N1CCN(C(=O)C2CC2)CC1 + Cc1c(S(C)(=O)=O)c(-c2cc(F)cc(N3CCN(c4ccc(NS(=O)(=O)c5ccc(NC(CCN6CCC(C(=O)OCCCP(=O)(O)O)CC6)CSc6ccccc6)c(S(=O)(=O)C(F)(F)F)c5)cc4)CC3)c2)c(-c2ccc(Cl)cc2)n1C(C)C,IC50,second compound 0.1 µM,> 10000 nM
same,IC50,second compound 0.316 µM,6750 nM
same,IC50,second compound 1 µM,755 nM
same,IC50,second compound 3.16 µM,< 31.6 nM
same,IC50,second compound 10 µM,< 31.6 nM
same,"viability, T/C",[3],95.5%
same,"viability, T/C",[4],96%
same,"viability, T/C",[21],92.5%
same,"viability, T/C",[22],92%
same,"viability, T/C","second compound 0.1 µM, first compound 3.16 µM",89.1%
same,"viability, T/C","second compound 0.1 µM, first compound 10 µM",78.8%
same,"viability, T/C",[7],88.8%
same,"viability, T/C",[8],90%
same,"viability, T/C",[23],85.4%
same,"viability, T/C",[24],86.5%
same,"viability, T/C","second compound 0.316 µM, first compound 3.16 µM",66.6%
same,"viability, T/C","second compound 0.316 µM, first compound 10 µM",41.4%
same,"viability, T/C",[11],72.7%
same,"viability, T/C",[12],67.6%
same,"viability, T/C",[25],59%
same,"viability, T/C",[26],49%
same,"viability, T/C","second compound 1 µM, first compound 3.16 µM",26.3%
same,"viability, T/C","second compound 1 µM, first compound 10 µM",10.9%
same,"viability, T/C",[15],34%
same,"viability, T/C",[16],30.4%
same,"viability, T/C",[27],25.3%
same,"viability, T/C",[28],17.2%
same,"viability, T/C","second compound 3.16 µM, first compound 3.16 µM",3.59%
same,"viability, T/C","second compound 3.16 µM, first compound 10 µM",2.49%
same,"viability, T/C",[19],20.7%
same,"viability, T/C",[20],18.4%
same,"viability, T/C",[29],11.2%
same,"viability, T/C",[30],3.83%
same,"viability, T/C","second compound 10 µM, first compound 3.16 µM",1.31%
same,"viability, T/C","second compound 10 µM, first compound 10 µM",1.84%
O=C(c1ccc(F)c(F)c1Nc1ccc(I)cc1F)N1CC(O)([C@@H]2CCCCN2)C1 + Cc1c(S(C)(=O)=O)c(-c2cc(F)cc(N3CCN(c4ccc(NS(=O)(=O)c5ccc(NC(CCN6CCC(C(=O)OCCCP(=O)(O)O)CC6)CSc6ccccc6)c(S(=O)(=O)C(F)(F)F)c5)cc4)CC3)c2)c(-c2ccc(Cl)cc2)n1C(C)C,IC50,second compound 0.1 µM,64.4 nM
same,IC50,second compound 0.316 µM,58.4 nM
same,IC50,second compound 1 µM,38.3 nM
same,IC50,second compound 3.16 µM,< 3.16 nM
same,IC50,second compound 10 µM,< 3.16 nM
same,"viability, T/C",[1],92.4%
same,"viability, T/C",[2],91.7%
same,"viability, T/C",[3],79.5%
same,"viability, T/C",[4],32%
same,"viability, T/C",[21],1.51%
same,"viability, T/C",[22],0.8%
same,"viability, T/C",[5],92.8%
same,"viability, T/C",[6],91.9%
same,"viability, T/C",[7],79.3%
same,"viability, T/C",[8],24.4%
same,"viability, T/C",[23],0.48%
same,"viability, T/C",[24],0.95%
same,"viability, T/C",[9],68%
same,"viability, T/C",[10],70.4%
same,"viability, T/C",[11],56%
same,"viability, T/C",[12],17.4%
same,"viability, T/C",[25],0.25%
same,"viability, T/C",[26],2.24%
same,"viability, T/C",[13],39.5%
same,"viability, T/C",[14],34.9%
same,"viability, T/C",[15],27.3%
same,"viability, T/C",[16],2.89%
same,"viability, T/C",[27],0.11%
same,"viability, T/C",[28],0.23%
same,"viability, T/C",[17],25.1%
same,"viability, T/C",[18],21.5%
same,"viability, T/C",[19],14.2%
same,"viability, T/C",[20],0.19%
same,"viability, T/C",[29],0.18%
same,"viability, T/C",[30],0.36%
